Reference: patent publication US7049334B2, “Enhancement of learning and memory and treatment of amnesia” (priority 2001, dated 2006)
“And” between values parts separate entries of the source, which are not always exact repeats. Equal values may be shown once.

Columns and labels:
[1] = tested on: cortico-amygdala pathway (lateral amygdala); assay: LTP in cortico-amygdala pathway (fEPSP); type: cell-based, Wistar rats; settings: three trains (100 Hz, 1 sec at 3 min interval); in the presence of compound 1; n=4
Protocol: After decapitation, brains of either adult ([…], for the induction of long-term potentiation) or young (2–3 weeks old, for the induction of long-term depression) Wistar rats were rapidly removed, and the hippocampus was dissected out. Transverse hippocampal slices (450 μm thickness) were immediately placed in an ice-cold cutting buffer containing 124 mM NaCl, 3 mM KCl, 1.0 mM Na2HPO4, 25 mM NaHCO3, 0.5 mM CaCl2, 5.0 mM MgSO4, 10 mM glucose, saturated with 95% O2 and 5% CO2. The slices were then maintained in an interface chamber at room temperature, and perfused at flow rate of 1–2 mL/min with artificial cerebrospinal fluid (ACSF). […] The test pulse duration was 100 μsec, and test responses were elicited at 0.02 Hz. To record field potentials in the cortico-amygdala pathway, a stimulating electrode was placed in the external capsule, which contained fibers from the auditory cortex to the lateral amygdala. Bicuculine (10 μM) was present in the perfusion solution when the fEPSPs of amygdala were recorded. […] Evoked fEPSPs were recorded and data were analyzed. The initial slope of the fEPSPs was calculated, and the data were expressed as percentages of the average of the base-line slope of the fEPSPs. […]

[2] = tested on: rats (passive avoidance learning); assay: One-trial step-through passive inhibitory avoidance task; type: in vivo
Source text: Passive Avoidance and active avoidance task: Rats were trained and tested on a one-trial step-through passive inhibitory avoidance task with a procedure as described in Liang et al. (1998, Chin. J. Physiol. 41: 33–44). Briefly, an apparatus was a trough-shape alley divided by a sliding door into a well-lit safe compartment and a dark shock compartment. A rat was placed in the lit side facing away from the door. As the rat turned around, the door was opened. After the rat stepped into the dark compartment, it received an inescapable footshock via a constant current shocker controlled by a timer (Lafayette Instruments, Model 80240 and Model 58010, Indiana, USA). After administration of the foot-shock, the rat was removed from the alley and returned to its home cage. In a retention test given 24 hrs or 10 days later, the rat was reintroduced into the alley and the latency of stepping into the shock compartment with all four feet was taken as a retention score.
The amygdala is also implicated in learning and memory. Studies have shown that this brain structure is particularly involved in processing affective information. See, e.g., Cahill and McGaugh (1990) Behav. Neurosci. 104: 532–543; and Gilbert et al. (1991) Behav. Neurosci. 105: 533–561. It has been reported that nitric oxide is also involved in activity-dependent synaptic plasticity and passive avoidance learning in amygdaloid nucleus. See, e.g., Bernabeu et al. (1995) NeuroReport 6: 1498–1500; Watanabe et al. (1995) Brain Res. 688: 233–236; and Teledgy and Kokavszky (1997) Neuropharmacology 36: 1583–1587. The effect of Compound 1 on passive avoidance learning was studied. Compound 1 was injected (i.p., 1 mg/kg) 10 min before foot-shock training. […] The memory lasts for several days. The retention scores were very high even if tested on day 10. There were much more rats which had retention latencies longer than 5 min in Compound 1-treated rats (2 out of 15 in a control group and 11 out of 12 in a Compound 1-treated group, respectively) tested on both day-1 and day-10. When the Compound 1 was mixed with 1.25% CMC and delivered to stomach directly (10 mg/kg) before foot-shock. The retention test was performed 1 day and 10 days later, respectively. […] Rats of 1-year-old were chosen for this experiment. Compound 1 (1 mg/kg) was i.p. injected 10 min before foot-shock. The retention test was performed 1 day and 10 days later, respectively.

rats (active avoidance) = assay: Active avoidance task; type: in vivo
Protocol: For the test of active avoidance, the rat was placed in the dark compartment, facing the door. The door was opened halfway, and the rat had 10 sec to shuttle over the door to lit compartment. Rat was not chosen for this experiment if the rat crossed to the safe side within 10 sec. Foot-shock was turned on at 10 s later. Rat escaped into safe compartment and the door was closed. The retention time on dark shock compartment was measured 48 hr later. The rats were discarded once the rats enter lit compartment within 10 s on the day of context training. Foot-shock was administered 10 s after putting in the dark compartment on day-1. Memory retention was tested on day-2.

[3] = aged rats (1-year-old), i.p. 1 mg/kg 10 min before foot-shock
[4] = aged rats (1-year-old), i.p. 1 mg/kg 10 min before foot-shock, 1 mg/kg
[5] = oral 10 mg/kg in 1.25% CMC before foot-shock
[6] = oral 10 mg/kg in 1.25% CMC before foot-shock, ceiling 300 s or 600 s, 10 mg/kg
[7] = injection 10 min before foot-shock

OCc1ccc(-c2nn(Cc3ccccc3)c3ccccc23)o1 [Compound 1, 1-benzyl-3-(5′-hydroxymethyl-2′-furyl)-indazole]
duration of enduring LTP in amygdala [1]: at least 1 hr | enhancement effect induced by Compound 1, with KT5823 ([2]; KT5823 i.c.v. 0.2 nmole): significantly antagonized | enhancement effect induced by Compound 1, with L-NAME ([2]; L-NAME i.c.v. 1 mmole): significantly antagonized | retention scores when given before context training ([2]; administered 10 min before the context training instead of the foot-shock): prolonged the retention scores | Retention Scores Day-1, mean ± std [2, 3]: mean ± std 233.0 ± 47.3 sec | Retention Scores Day-10, mean ± std [2, 3]: 181.4 ± 55.7 s | Retention Scores Day-1, individual rats [2, 4]: >300 sec (3×) and 207.1 sec and 58.1 sec | Retention Scores Day-10, individual rats [2, 4]: 252.2 s and 255.9 s and 85.8 s and >300 s and 12.9 s | retention latencies in the lighted compartment ([2]; i.p. 1 mg/kg 10 min before foot-shock training): markedly prolonged | rats with retention latencies longer than 5 min ([2]; i.p. 1 mg/kg, tested on both day-1 and day-10): 11 out of 12 | effect on avoidance behavior when injected after foot-shock ([2]; injected 30 min after foot-shock): did not exert any effect | Retention Scores Day-1, mean ± std [2, 5]: mean ± std 369.2 ± 70.2 sec | Retention Scores Day-10, mean ± std [2, 5]: 437.3 ± 62.4 s | Retention Scores Day-1, individual rats [2, 6]: >600 sec (4×) and 15.0 sec and >300 sec (4×) and 77.1 sec | Retention Scores Day-10, individual rats [2, 6]: 454.0 sec and >600 sec (4×) and 15.0 sec and 207.1 sec and 453.2 sec and 343.2 sec and 500.2 sec | memory enhancement effect induced by Compound 1, with KT5823 (rats (active avoidance); KT5823 i.c.v. 0.2 nmole): effectively inhibited | memory enhancement effect induced by Compound 1, with L-NAME (rats (active avoidance); L-NAME i.c.v. 1 mmole): effectively inhibited | escape latency from the shock- to the safe-compartment (rats (active avoidance); [7]): decrease | retention of memory (rats (active avoidance); [7]): noticeable increase
